Entries after “also recorded” stand apart in the source; their conditions may differ.
Key:
[1] = system: advanced solid tumours (CRC, HGSOC, NSCLC, mCRPC, HNSCC); test: Tumour response by RECIST 1.1; type: in vivo, human
Experimental: Radiologic tumour assessments were carried out every 8 weeks, and clinical evaluations and serum tumour markers assessed every 4 weeks. Tumours were assessed using the Response Evaluation Criteria in Solid Tumors version 1.1 (RECIST 1.1). Clinical response data were summarized in cohorts defined by tumour type (CRC, HGSOC, NSCLC, mCRPC, HNSCC, or other disease). The Safety Evaluable population included all patients who received at least one dose of SRA737. The Response Evaluable population included patients who had measurable disease at baseline, received at least 75% of planned SRA737 doses in Cycle 1 and had at least one post-baseline disease assessment or discontinued treatment due to disease progression, adverse event, or death.

[2] = system: patients with advanced solid tumours; test: Cardiac safety: ECG (QTcF), troponin, echocardiogram; type: in vivo, human
Experimental: Cardiac assessments included centrally-assessed serial ECGs in Cycle 1 used for evaluation of QTc. In addition, locally-read ECGs for safety assessment were also available for central assessment where clinically indicated. Troponin T or I assessments and echocardiogram were locally assessed.
Safety and response variables were summarized using descriptive statistics and PK parameters were determined using non-compartmental methods. A concentration-effect model was used to evaluate the relationship between plasma SRA737 concentrations and the mean change from baseline in QT interval corrected for heart rate using Fridericia’s formula (QTcF) in time-matched ECG measurements and PK samples collected on Day −7 to Day −4 and during Cycle 1.

N#Cc1cnc(Nc2cc(NC[C@H]3CNCCO3)c(C(F)(F)F)cn2)cn1 [SRA737, (R)-5-((4-((morpholin-2-ylmethyl)amino)-5-(trifluoromethyl)pyridin-2-yl)amino)pyr azine-2-carbonitrile]
disease control rate (at least four cycles with at least stable disease as best response) ([1]; HGSOC, 11/26): 42.3% | disease control rate (at least four cycles with at least stable disease as best response) ([1]; HNSCC, 3/4): 75.0% | disease control rate (at least four cycles with at least stable disease as best response) ([1]; NSCLC, 3/8): 37.5% | patients with reduction or no increase in sum of RECIST target tumour diameters and/or stable disease for 4 or more cycles ([1]; in vivo): 29 patients | reductions in tumour size ([1]; in vivo): up to 29 % reduction | disease control rate (at least four cycles with at least stable disease as best response) ([1]; mCRPC, 8/13): 61.5% | RECIST responses (complete or partial) ([1]; monotherapy, expansion cohort patients with predefined genetic mutations): no complete or partial RECIST responses; also recorded: no partial or complete RECIST responses | largest LS mean ΔQTcF ([2]; 800 mg QD, 2 h post dose on Cycle 1 Day 22, 90% confidence interval 11.53 to 22.13): 16.8 ms | cases of acute coronary syndrome (cardiac SAE) ([2]; 800 mg SRA737): 1 case | cases of asymptomatic myocardial infarction (cardiac SAE) ([2]; 800 mg SRA737): 1 case | cases of asymptomatic QT prolongation (cardiac SAE) ([2]; 1000 mg SRA737): 1 case | cases of cardiomyopathy (cardiac SAE) ([2]; 1000 mg SRA737): 1 case | cardiac serious adverse events evaluated to be possibly related to SRA737 ([2]; all doses): Four | subjects with treatment-emergent QTcF values >500 ms or ΔQTcF of >60 ms ([2]; central ECG monitoring): no individual subjects | patients with > 10% absolute drop from baseline resulting in abnormal left ventricular ejection fraction ([2]; echocardiogram data, 83 evaluable patients, other than cardiomyopathy and myocardial infarction cases): no additional patients | drop of left ventricular ejection fraction, one patient ([2]; echocardiogram performed outside the study): from 65 to 20–25% | effects on heart rate, PR interval, or QRS duration ([2]; studied doses): no clinically relevant effects | proarrhythmic potential ([2]; therapeutic doses): no indication that SRA737 is proarrhythmic

From PMC10307885, “A Phase 1/2 trial of SRA737 (a Chk1 inhibitor) administered orally in patients with advanced cancer” (British Journal of Cancer, 2023)
